The values below come from ChEMBL document CHEMBL1133198, “Prenylated xanthones as potential P-glycoprotein modulators” (Bioorg Med Chem Lett, 2000).

One may read the Kd as the constant that tells how readily two partners part at equilibrium.

The nature of this assay: Binding affinity of compound to P-glycoprotein recombinant domain of prenylated xanthones was evaluated.

With `COc1cc2oc3ccc(OC)c(OC)c3c(=O)c2c(O)c1CC=C(C)C`, the Kd was found to be 0.39 µM.

With `COc1cc(O)c2c(=O)c3c(OC)c(OC)ccc3oc2c1` [DECUSSATIN], the Kd was found to be 28.8 µM.

For the compound `COc1cc2oc3ccc(OC)c(OC)c3c(=O)c2c2c1C(C)(C)C(C)O2` (stereo not given), the Kd stood at 24.8 µM.

Turning to `COCCOCOc1cc(OCC=C(C)C)c2c(=O)cc(-c3ccccc3)oc2c1`, the Kd is 6.1 µM.

Turning to `COCCOCOc1cc(O)c2c(=O)cc(-c3ccccc3)oc2c1CC=C(C)C`, the Kd was 0.1 µM.

With `C=CC(C)(C)c1c(OCOCCOC)cc2oc(-c3ccccc3)cc(=O)c2c1O`, the Kd turned out to be 0.1 µM.

In the case of `COc1cc(O)c2c(=O)c3c(OC)c(OC)ccc3oc2c1CC=C(C)C`, the Kd worked out at 0.59 µM.

Regarding `COc1cc(OCC=C(C)C)c2c(=O)c3c(OC)c(OC)ccc3oc2c1`, the Kd is 13.9 µM.

As for `C=CC(C)(C)c1c(OC)cc2oc3ccc(OC)c(OC)c3c(=O)c2c1O`, the Kd is 0.25 µM.

`COCCOCOc1cc(O)c2c(=O)cc(-c3ccccc3)oc2c1`: the Kd was determined as 8.05 µM.
